Experimental data from patent US4420482A, “1,4-Bis(acetylsalicyloyloxy)piperizine derivatives” (priority 1980, dated 1983).

Assays:
[1] = Comparative oral acute toxicity in the mouse; format: in vivo
Excerpt: The new derivative of acetylsalicylic acid, ie S.1528, has been showing a quite mild toxicity associated with marked anti-inflammatory, antipyretic and analgesic activities as well as with an evident anti-histaminic activity. Moreover, unlike acetylsalicylic acid, the new compound appear to be entirely devoid of any gastric injuring effect.

[2] = Protective activity on lethal shock induced by inhaled histamine; format: in vivo, guinea-pig; conditions: for Protected animals: 20 guinea-pigs; for antihistaminic activity: inhaled histamine shock, guinea-pig
Excerpt: Table 4 points out the protective activity exerted by S.1528 versus the lethal shock induced in the guinea-pig by an inhaled histamine.

[3] = Paw carrageenin edema in the rat (anti-inflammatory activity); format: in vivo, Sprague Dawley rat; conditions: for anti-inflammatory activity: equimolecular doses, S.1528 vs acetylsalicylic acid
Procedure: The anti-inflammatory activity of S.1528 was assessed in the paw carrageenin edema (220 Sprague Dawley male rats with a mean bodyweight of 150 g). […] It should be noted that, in the overall context of the present patent application the term "equimolecular doses" of S.1528 indicates all those doses that contain acetylsalicylic residues in a quantity equivalent to that of acetylsalicylic acid used as reference drug.

[4] = Therapeutic index (ratio between toxic dose and active dose); format: in vivo; conditions: 2600:158 for S.1528; 1000:100 for acetylsalicylic acid
[5] = Analgesic activity, pressure-induced pain on paw inflamed by brewers' yeast (test of Randall and Selitto); format: in vivo, Sprague Dawley rat; conditions: for Pain sensitivity threshold (g) of inflamed paw: mean of 1 and 2 hr, P < 0.01 vs controls; for analgesic activity: equimolecular doses, S.1528 vs acetylsalicylic acid
Procedure: The analgesic activity of S.1528 was assessed on the sensitivity threshold of pain induced by a pressure exerted on a rat's paw inflamed by application of brewers' yeast (90 Sprague Dawley male rats with a mean bodyweight of 150 g).

[6] = Antipyretic activity, hyperpyrexia induced by intramuscular brewers' yeast; format: in vivo, Sprague Dawley rat; conditions: for antipyretic activity: equimolecular doses, S.1528 vs acetylsalicylic acid; for mean temperature decrease: half dosage
[7] = Gastric ulcerogenic effect in the rat; format: in vivo, Sprague Dawley rat; conditions: for Incidence of gastric lesions (animals with lesions versus total treated): fasted 36 hours, killed 5 hours later

**Q.** Which “Mortality observed (7 days)” value ([1]; 750 mg/kg/os) does the source give for `CC(=O)Oc1ccccc1C(=O)OCCN1CCN(CCOC(=O)c2ccccc2OC(C)=O)CC1` [S.1528, 1,4-BIS-[2-(ACETYLSALICYLOYLOXY)ETHYL] PIPERAZINE] here?
**A.** 0/10

**Q.** What about the “Mortality observed (7 days)” value ([1]; 1000 mg/kg/os) of the same compound?
**A.** 0/10

**Q.** What about the “Mortality observed (7 days)” value ([1]; 1500 mg/kg/os) of the same compound?
**A.** 0/20

**Q.** What about the “Mortality observed (7 days)” value ([1]; 1750 mg/kg/os) of the same compound?
**A.** 0/20

**Q.** What about the “Mortality observed (7 days)” value ([1]; 2000 mg/kg/os) of the same compound?
**A.** 4/20

**Q.** What about the “Mortality observed (7 days)” value ([1]; 2250 mg/kg/os) of the same compound?
**A.** 5/20

**Q.** What about the “Mortality observed (7 days)” value ([1]; 2500 mg/kg/os) of the same compound?
**A.** 8/20

**Q.** What about the “Mortality observed (7 days)” value ([1]; 2750 mg/kg/os) of the same compound?
**A.** 12/20

**Q.** And the “Mortality observed (7 days)” value ([1]; 3000 mg/kg/os)?
**A.** 16/20

**Q.** What about the LD50 at 168 h ([1]; in vivo, oral, read-out: oral LD 50) of the same compound?
**A.** ~2600 mg/kg

**Q.** And the “Percent Protection” value ([2]; 158 mg/kg/os)?
**A.** 60%

**Q.** And the “Time of resistance” value ([2]; 158 mg/kg/os)?
**A.** 523 min

**Q.** What about the Protected animals ([2]; 158 mg/kg/os) of the same compound?
**A.** 12 animals

**Q.** What about the “Percent Protection” value ([2]; 317 mg/kg/os) of the same compound?
**A.** 100%

**Q.** And the “Time of resistance” value ([2]; 317 mg/kg/os)?
**A.** > 720 min

**Q.** What about the Protected animals ([2]; 317 mg/kg/os) of the same compound?
**A.** 20 animals

**Q.** What about the ED50 ([2]; Cavia porcellus, read-out: dose that protects 50 percent of the guinea-pigs from the onset of a shock due to histamine) of the same compound?
**A.** 158 mg/kg

**Q.** What about the “antihistaminic activity” value [2] of the same compound?
**A.** evident antihistaminic activity

**Q.** And the “Comparative edema decrease in the various groups of untreated control animals” value (“Comparative edema decrease” for short) ([3]; 79 mg/kg/os, P ns)?
**A.** -23

**Q.** And the “Comparative edema decrease” value ([3]; 158 mg/kg/os, P <0.01)?
**A.** -52

**Q.** And the “Comparative edema decrease” value ([3]; 317 mg/kg/os, P <0.01)?
**A.** -83

**Q.** And the “anti-inflammatory activity” value [3]?
**A.** quantitatively superimposable anti-inflammatory activity

**Q.** And the “therapeutic index (ratio between the toxic dose and the active dose)” value [4]?
**A.** 16.45

**Q.** And the “Threshold percent increase vs. controls” value ([5]; 158 mg/kg/os)?
**A.** 41.3%

**Q.** And the “Pain sensitivity threshold (g) of inflamed paw” value ([5]; 158 mg/kg/os)?
**A.** 127.2 ± 6.3 g

**Q.** And the “Threshold percent increase vs. controls” value ([5]; 317 mg/kg/os)?
**A.** 69.1%

**Q.** And the “Pain sensitivity threshold (g) of inflamed paw” value ([5]; 317 mg/kg/os)?
**A.** 152.2 ± 8.4 g

**Q.** And the “analgesic activity” value [5]?
**A.** quantitatively similar activity

**Q.** And the “antipyretic activity” value [6]?
**A.** quite the same antipyretic activity

**Q.** And the mean temperature decrease ([6]; 118.5 mg/kg/os)?
**A.** 0.4 degrees centigrades

**Q.** What about the “Mean number of gastric ulcerations (mm)” value ([7]; 158 mg/kg, os) of the same compound?
**A.** 0 mm

**Q.** And the “Incidence of gastric lesions (animals with lesions versus total treated)” value ([7]; 158 mg/kg, os)?
**A.** 0/20

**Q.** And the “Mean number of gastric ulcerations (mm)” value ([7]; 317 mg/kg, i.p.)?
**A.** 0 mm

**Q.** What about the “Incidence of gastric lesions (animals with lesions versus total treated)” value ([7]; 317 mg/kg, i.p.) of the same compound?
**A.** 0/20

**Q.** What about the “Mean number of gastric ulcerations (mm)” value ([7]; 317 mg/kg, os) of the same compound?
**A.** 0 mm

**Q.** And the “Incidence of gastric lesions (animals with lesions versus total treated)” value ([7]; 317 mg/kg, os)?
**A.** 0/20

**Q.** What about the “gastric injuring effect” value ([7]; equimolecular doses, rat) of the same compound?
**A.** no gastric injuring effect

**Q.** Which results are given for `CC(=O)Oc1ccccc1C(=O)O` [Acetylsalicylic acid, acetylsalicylic acid, reference compound]?
**A.** Mortality observed (7 days) ([1]; 250 mg/kg/os): 0; Mortality observed (7 days) ([1]; 500 mg/kg/os): 0; Mortality observed (7 days) ([1]; 750 mg/kg/os): 4/20; Mortality observed (7 days) ([1]; 1000 mg/kg/os): 10/20; Mortality observed (7 days) ([1]; 1250 mg/kg/os): 14/20; Mortality observed (7 days) ([1]; 1500 mg/kg/os): 20/20; Mortality observed (7 days) ([1]; 1750 mg/kg/os): 10/10; oral LD 50 ([1]; oral, 10080 min): 1000 mg/kg; Time of resistance ([2]; 110 mg/kg/os): 66 ± 6.3 min; Protected animals ([2]; 110 mg/kg/os): 0 animals; Time of resistance ([2]; 221 mg/kg/os): 54 min; Protected animals ([2]; 221 mg/kg/os): 0 animals; antihistaminic activity [2]: entirely devoid of any antihistaminic activity; Comparative edema decrease in the various groups of untreated control animals ([3]; 55 mg/kg/os, P ns): -28; Comparative edema decrease in the various groups of untreated control animals ([3]; 110 mg/kg/os, P <0.01): -44; Comparative edema decrease in the various groups of untreated control animals ([3]; 221 mg/kg/os, P <0.01): -79; anti-inflammatory activity [3]: quantitatively superimposable anti-inflammatory activity; therapeutic index (ratio between the toxic dose and the active dose) [4]: 10; Threshold percent increase vs. controls ([5]; 110 mg/kg/os): 36.2%; Pain sensitivity threshold (g) of inflamed paw ([5]; 110 mg/kg/os): 122.6 ± 7.1 g; Threshold percent increase vs. controls ([5]; 221 mg/kg/os): 71.2%; Pain sensitivity threshold (g) of inflamed paw ([5]; 221 mg/kg/os): 154.1 ± 5.7 g; analgesic activity [5]: quantitatively similar activity; antipyretic activity [6]: quite the same antipyretic activity; mean temperature decrease ([6]; 75 mg/kg/os): 0.4 degrees centigrades
